The values below are quoted from earlier work in patent US12048769B2, “Methods for administering weight loss medications” (priority 2006, dated 2024).

SMILES strings stand for the structures.

The conditions of data set [1]: in vivo.
The conditions of data set [2]: in vivo. The source holds these as a separate data set.
Data set [3] concerns patients presenting primary obesity. The following applies: comparable to marketed weight loss medications.

Take `CNCCC(Oc1ccc(C(F)(F)F)cc1)c1ccccc1` (stereo not drawn) [Fluoxetine, N-methyl-3-phenyl-3-[4-(trifluoromethyl)phenoxy]-propan-1-amine]: under “in vivo”, the bioavailability entry is reported as “approximately 72%” and the “time to complete excretion” value was “several weeks”. The plasma protein binding result (mostly albumin) is “highly bound”. Further, the “elimination half-life in liver disease” value (those with liver disease) is “prolonged”. For the same compound, in data set [1], the physiological half life entry is given as “about 24 hours”.
Turning to `Cc1cc2c(s1)Nc1ccccc1N=C2N1CCN(C)CC1` [Olanzapine, 2-methyl-4-(4-methyl-1-piperazinyl)-10H-thieno[2,3-b][1,5]benzodiazepine], in data set [2], the “effect of food on bioavailability” value is recorded as “not affected by food”, the first pass metabolism entry is on record as “extensive first pass metabolism”, the kinetics result is “linear kinetics” and the “time to steady state plasma concentrations” value was “about a week”.
Take `NS(=O)(=O)Cc1noc2ccccc12` [Zonisamide]: the “inhibitory effect on carbonic anhydrase” value in the data set on carbonic anhydrase is recorded as “weak inhibitory effect”. Moreover, in data set [3], the weight loss entry is given as “significant weight loss”.
With `NCCC(Oc1ccc(C(F)(F)F)cc1)c1ccccc1` (stereo not drawn) [norfluoxetine], the elimination half-life (after long-term use, healthy adults) is recorded as 16 days.
